From US11312706B2, “Cyclohexyl acid pyrazole azines as LPA antagonists” (BRISTOL-MYERS SQUIBB COMPANY, priority 2017, dated 2022)

target: T1, human LPA1 (Homo sapiens, UniProt Q92633); assay: LPA1 functional antagonist assay (LPA-induced calcium flux); format: cell-based; conditions: CHO cells overexpressing human LPA1, 10 nM LPA, read-out: hLPA1 IC50
T1 construct: expressed in transfected cells; host or cells: Chinese hamster ovary (CHO) cells
Procedure: The effectiveness of compounds of the present invention as LPA1 inhibitors can be determined in an LPA1 functional antagonist assay as follows:
Chinese hamster ovary cells overexpressing human LPA1 were plated overnight (15,000 cells/well) in poly-D-lysine coated 384-well microplates (Greiner bio-one, Cat #781946) in DMEM/F12 medium (Gibco, Cat #11039). Following overnight culture, cells were loaded with calcium indicator dye (AAT Bioquest Inc, Cat #34601) for 30 minutes at 37° C. The cells were then equilibrated to room temperature for 30 minutes before the assay. Test compounds solubilized in DMSO were transferred to 384 well non-binding surface plates (Corning, Cat #3575) using the Labcyte Echo acoustic dispense and diluted with assay buffer [1×HBSS with calcium/magnesium (Gibco Cat #14025-092), 20 mM HEPES (Gibco Cat #15630-080) and 0.1% fatty acid free BSA (Sigma Cat #A9205)] to a final concentration of 0.5% DMSO. Diluted compounds were added to the cells by FDSS6000 (Hamamatsu) at final concentrations ranging from 0.08 nM to 5 μM. and were then incubated for 20 min at room temperature at which time LPA (Avanti Polar Lipids Cat #857130C) was added at final concentrations of 10 nM to stimulate the cells. The compound IC50 value was defined as the concentration of test compound which inhibited 50% of the calcium flux induced by LPA alone. IC50 values were determined by fitting data to a 4-parameter logistic equation (GraphPad Prism, San Diego Calif.).

T1 sequence (Q92633 whole entry): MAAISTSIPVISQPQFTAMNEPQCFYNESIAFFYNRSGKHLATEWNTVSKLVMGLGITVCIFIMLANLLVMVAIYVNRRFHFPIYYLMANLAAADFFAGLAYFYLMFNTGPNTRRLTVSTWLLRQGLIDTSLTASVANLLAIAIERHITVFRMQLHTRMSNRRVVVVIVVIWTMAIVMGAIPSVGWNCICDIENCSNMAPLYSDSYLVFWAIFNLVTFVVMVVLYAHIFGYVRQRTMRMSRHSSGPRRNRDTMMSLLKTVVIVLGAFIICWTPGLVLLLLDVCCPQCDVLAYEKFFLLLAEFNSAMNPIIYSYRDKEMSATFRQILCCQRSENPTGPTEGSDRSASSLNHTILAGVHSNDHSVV

CCCNc1nc(NCc2c(-c3ncc(O[C@H]4CCC[C@H](C(=O)O)C4)c(C)n3)cnn2C)ncc1F [Example 37, (1S,3S)-3-((2-(5-(((5-fluoro-4-(propylamino)pyrimidin-2-yl)amino)methyl)-1-methyl-1H-pyrazol-4-yl)-4-methylpyrimidin-5-yl)oxy)cyclohexane-1-carboxylic acid] and Cc1nc(-c2cnn(C)c2CNc2nccc(OCC(F)(F)F)n2)ncc1O[C@H]1CCC[C@H](C(=O)O)C1 [Example 16, (1S,3S)-3-((4-methyl-2-(1-methyl-5-(((4-(2,2,2-trifluoroethoxy)pyrimidin-2-yl)amino)methyl)-1H-pyrazol-4-yl)pyrimidin-5-yl)oxy)cyclohexane-1-carboxylic acid] are within 1.5-fold of each other in IC50: 0.013 µM for the first, 0.012 µM for the second.

Going from Cc1nc(-c2cnn(C)c2CNc2nccc(OC3CC3)n2)ncc1O[C@H]1CCC[C@H](C(=O)O)C1 [Example 7, (1S,3S)-3-((2-(5-(((4-cyclopropoxy-pyrimidin-2-yl)amino)methyl)-1-methyl-1H-pyrazol-4-yl)-4-methylpyrimidin-5-yl)oxy)cyclohexane-1-carboxylic acid] to COc1ccnc(NCc2c(-c3ncc(O[C@H]4CCC[C@H](C(=O)O)C4)c(C)n3)cnn2C)n1 [Example 6, (1S,3S)-3-((2-(5-(((4-methoxy-pyrimidin-2-yl)amino)methyl)-1-methyl-1H-pyrazol-4-yl)-4-methylpyrimidin-5-yl)oxy)cyclohexane-1-carboxylic acid], the IC50 rises from 0.022 µM to 0.074 µM (3.4-fold).

Going from Cc1cc(-c2ccccn2)nc(NCc2c(-c3ccc(O[C@H]4CCC[C@H](C(=O)O)C4)c(C)n3)cnn2C)n1 [Example 5, (1S,3S)-3-((2-methyl-6-(1-methyl-5-(((4-methyl-6-(pyridin-2-yl)pyrimidin-2-yl)amino)methyl)-1H-pyrazol-4-yl)pyridin-3-yl)oxy)cyclohexanecarboxylic acid] to CCNc1nc(NCc2c(-c3ncc(O[C@H]4CCC[C@H](C(=O)O)C4)c(C)n3)cnn2C)ncc1F [Example 38, (1S,3S)-3-((2-(5-(((4-(ethylamino)-5-fluoropyrimidin-2-yl)amino)methyl)-1-methyl-1H-pyrazol-4-yl)-4-methylpyrimidin-5-yl)oxy)cyclohexane-1-carboxylic acid], the IC50 falls from 0.217 µM to 0.041 µM (5.3-fold).

Going from COCCCOc1ccnc(NCc2c(-c3ncc(O[C@H]4CCC[C@H](C(=O)O)C4)c(C)n3)cnn2C)n1 [Example 36, (1S,3S)-3-((2-(5-(((4-(3-methoxypropoxy)pyrimidin-2-yl)amino)methyl)-1-methyl-1H-pyrazol-4-yl)-4-methylpyrimidin-5-yl)oxy)cyclohexane-1-carboxylic acid] to Cc1nc(-c2cnn(C)c2CNc2nccc(OCC(F)F)n2)ncc1O[C@H]1CCC[C@H](C(=O)O)C1 [Example 40, (1S,3S)-3-((2-(5-(((4-(2,2-difluoroethoxy)pyrimidin-2-yl)amino)methyl)-1-methyl-1H-pyrazol-4-yl)-4-methylpyrimidin-5-yl)oxy)cyclohexane-1-carboxylic acid], the IC50 falls from 0.027 µM to 0.0027 µM (10-fold).

First: CCc1nc(-c2cnn(C)c2CNc2nccc(OC)n2)ncc1O[C@H]1CCC[C@H](C(=O)O)C1 [Example 24, (1S,3S)-3-((4-ethyl-2-(5-(((4-methoxypyrimidin-2-yl)amino)methyl)-1-methyl-1H-pyrazol-4-yl)pyrimidin-5-yl)oxy)cyclohexane-1-carboxylic acid]
Second: Cc1nc(-c2cnn(C)c2CNc2ncnc(C(C)C)n2)ncc1O[C@H]1CCC[C@H](C(=O)O)C1 [Example 43, (1S,3S)-3-((2-(5-(((4-isopropyl-1,3,5-triazin-2-yl)amino)methyl)-1-methyl-1H-pyrazol-4-yl)-4-methylpyrimidin-5-yl)oxy)cyclohexane-1-carboxylic acid]
The IC50 of the first is 12-fold higher: 0.35 µM for the first, 0.028 µM for the second.

First: CCc1nc(-c2cnn(C)c2CNc2nccc(OCCCF)n2)ncc1O[C@H]1CCC[C@H](C(=O)O)C1 [Example 25, (1S,3S)-3-((4-ethyl-2-(5-(((4-(3-fluoropropoxy)pyrimidin-2-yl)amino)methyl)-1-methyl-1H-pyrazol-4-yl)pyrimidin-5-yl)oxy)cyclohexane-1-carboxylic acid]
Second: CCOc1ccnc(N(C)Cc2c(-c3ncc(O[C@H]4CCC[C@H](C(=O)O)C4)cn3)cnn2C)n1 [Example 29]
The IC50 of the first is 8.4-fold lower: 0.018 µM for the first, 0.151 µM for the second. The first is the more potent here.

Going from CCCOc1ccnc(Nc2c(-c3ncc(O[C@H]4CCC[C@H](C(=O)O)C4)c(C)n3)cnn2C)n1 [Example 20, (1S,3S)-3-((4-methyl-2-(1-methyl-5-((4-propoxypyrimidin-2-yl)amino)-1H-pyrazol-4-yl)pyrimidin-5-yl)oxy)cyclohexane-1-carboxylic acid] to CCOc1ccnc(NCc2c(-c3ncc(O[C@H]4CCC[C@H](C(=O)O)C4)cn3)cnn2C)n1 [Example 28, (1S,3S)-3-((2-(5-(((4-ethoxypyrimidin-2-yl)amino)methyl)-1-methyl-1H-pyrazol-4-yl)pyrimidin-5-yl)oxy)cyclohexane-1-carboxylic acid], the IC50 falls from 1.23 µM to 0.023 µM (53-fold). The second is the more potent here.

Going from Cc1nc(-c2cnn(C)c2CNc2nccc(OCC(C)(F)F)n2)ncc1O[C@H]1CCC[C@H](C(=O)O)C1 [Example 8, (1S,3S)-3-((2-(5-(((4-(2,2-difluoro-propoxy)pyrimidin-2-yl)amino)methyl)-1-methyl-1H-pyrazol-4-yl)-4-methylpyrimidin-5-yl)oxy)cyclo-hexane-1-carboxylic acid] to CCc1ccnc(NCc2c(-c3ncc(O[C@H]4CCC[C@H](C(=O)O)C4)c(C)n3)cnn2C)n1 [Example 35, (1S,3S)-3-((2-(5-(((4-ethylpyrimidin-2-yl)amino)methyl)-1-methyl-1H-pyrazol-4-yl)-4-methylpyrimidin-5-yl)oxy)cyclohexane-1-carboxylic acid], the IC50 rises from 0.033 µM to 0.207 µM (6.3-fold).

Going from Cc1nc(-c2cnn(C)c2CNc2nccc(Oc3ccccc3)n2)ncc1O[C@H]1CCC[C@H](C(=O)O)C1 [Example 9, (1S,3S)-3((4-methyl-2-(1-methyl-5-(((4-phenoxypyrimidin-2-yl)amino)-methyl)-1H-pyrazol-4-yl)pyrimidin-5-yl)oxy)cyclohexane-1-carboxylic acid] to CCCOc1ccnc(NCc2c(-c3ncc(O[C@H]4CCC[C@H](C(=O)O)C4)c(CC)n3)cnn2C)n1 [Example 23, (1S,3S)-3-((4-ethyl-2-(1-methyl-5-(((4-propoxypyrimidin-2-yl)amino)methyl)-1H-pyrazol-4-yl)pyrimidin-5-yl)oxy) cyclohexane-1-carboxylic acid], the IC50 falls from 0.032 µM to 0.002 µM (16-fold). The second is the more potent here.

Compared with Cc1nc(-c2cnn(C)c2CNc2nccc(-c3ccccc3)n2)ncc1O[C@H]1CCC[C@H](C(=O)O)C1 [Example 13, (1S,3S)-3-((4-methyl-2-(1-methyl-5-(((4-phenylpyrimidin-2-yl)amino)methyl)-1H-pyrazol-4-yl)pyrimidin-5-yl)oxy)cyclohexanecarboxylic acid], Cc1nc(-c2cnn(C)c2CNc2nccc(C3CC3)n2)ncc1O[C@H]1CCC[C@H](C(=O)O)C1 [Example 12, (1S,3S)-3-((2-(5-(((4-cyclopropyl-pyrimidin-2-yl)amino)methyl)-1-methyl-1H-pyrazol-4-yl)-4-methyl-pyrimidin-5-yl)oxy)cyclohexane-1-carboxylic acid] is 5.2-fold higher in IC50: 0.033 µM for the first, 0.172 µM for the second.

Going from Cc1nc(-c2cnn(C)c2CNc2nccc(OCC(F)(F)C(F)F)n2)ncc1O[C@H]1CCC[C@H](C(=O)O)C1 [Example 39, (1S,3S)-3((4-methyl-2-(1-methyl-5-(((4-(2,2,3,3-tetrafluoropropoxy)pyrimidin-2-yl)amino)methyl)-1H-pyrazol-4-yl)pyrimidin-5-yl)oxy)cyclohexane-1-carboxylic acid] to “(1S,3S)-3-((2-(5-(((4-(2-fluoro-phenyl)pyrimidin-2-yl)amino) methyl)-1-methyl-1H-1,2,3-triazol-4-yl)-4-methylpyrimidin-5-yl)oxy)cyclohexanecarboxylic acid [Example 14]”, the IC50 rises from 0.0062 µM to 0.022 µM (3.5-fold).

First: Cc1nc(-c2cnn(C)c2CNc2nccc(C(C)(C)C)n2)ncc1O[C@H]1CCC[C@H](C(=O)O)C1 [Example 11, (1S,3S)-3-((2-(5-(((4-(tert-butyl)pyrimidin-2-yl)amino)methyl)-1-methyl-1H-pyrazol-4-yl)-4-methyl-pyrimidin-5-yl)oxy)cyclohexane carboxylic acid]
Second: Cc1nc(-c2cnn(C)c2CNc2ncnc(C3CCCC3)n2)ncc1O[C@H]1CCC[C@H](C(=O)O)C1 [Example 15, (1S,3S)-3-((2-(5-(((4-cyclopenty1-1,3,5-triazin-2-yl)amino)methyl)-1-methyl-1H-pyrazol-4-yl)-4-methylpyrimidin-5-yl)oxy)cyclohexane carboxylic acid]
The IC50 of the first is 3-fold lower: 0.05 µM for the first, 0.148 µM for the second.

In the case of Cc1nc(-c2cnn(C)c2CNc2nccc(C(C)C)n2)ncc1O[C@H]1CCC[C@H](C(=O)O)C1 [Example 10, (1S,3S)-3-((2-(5-(((4-isopropyl-pyrimidin-2-yl)amino)methyl)-1-methyl-1H-pyrazol-4-yl)-4-methyl-pyrimidin-5-yl)oxy)cyclohexane carboxylic acid], the IC50 is reported as 0.047 µM.
